Data as given in ChEMBL document CHEMBL5291721, “A preclinical secondary pharmacology resource illuminates target-adverse drug reaction associations of marketed drugs” (Nat Commun, 2023).

Key:
[1] = molecular target: T1, Alpha-2A adrenergic receptor (Homo sapiens, UniProt P08913); type: functional, cell-based
T1 sequence (P08913 whole entry): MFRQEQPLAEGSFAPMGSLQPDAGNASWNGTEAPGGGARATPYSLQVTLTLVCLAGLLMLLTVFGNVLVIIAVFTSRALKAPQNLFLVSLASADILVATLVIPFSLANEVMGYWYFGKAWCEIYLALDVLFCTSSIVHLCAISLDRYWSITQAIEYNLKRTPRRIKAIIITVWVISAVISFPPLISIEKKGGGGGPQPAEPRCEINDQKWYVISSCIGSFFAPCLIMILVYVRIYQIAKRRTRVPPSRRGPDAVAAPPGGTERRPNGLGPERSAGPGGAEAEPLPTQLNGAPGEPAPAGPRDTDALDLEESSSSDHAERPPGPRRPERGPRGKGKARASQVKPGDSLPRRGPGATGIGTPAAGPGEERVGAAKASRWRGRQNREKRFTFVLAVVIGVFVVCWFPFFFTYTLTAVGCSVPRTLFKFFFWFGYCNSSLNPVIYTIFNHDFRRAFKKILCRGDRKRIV

[2] = molecular target: Beta-1 adrenergic receptor (Homo sapiens, UniProt P08588); type: functional
Beta-1 adrenergic receptor, sequence (P08588 whole entry): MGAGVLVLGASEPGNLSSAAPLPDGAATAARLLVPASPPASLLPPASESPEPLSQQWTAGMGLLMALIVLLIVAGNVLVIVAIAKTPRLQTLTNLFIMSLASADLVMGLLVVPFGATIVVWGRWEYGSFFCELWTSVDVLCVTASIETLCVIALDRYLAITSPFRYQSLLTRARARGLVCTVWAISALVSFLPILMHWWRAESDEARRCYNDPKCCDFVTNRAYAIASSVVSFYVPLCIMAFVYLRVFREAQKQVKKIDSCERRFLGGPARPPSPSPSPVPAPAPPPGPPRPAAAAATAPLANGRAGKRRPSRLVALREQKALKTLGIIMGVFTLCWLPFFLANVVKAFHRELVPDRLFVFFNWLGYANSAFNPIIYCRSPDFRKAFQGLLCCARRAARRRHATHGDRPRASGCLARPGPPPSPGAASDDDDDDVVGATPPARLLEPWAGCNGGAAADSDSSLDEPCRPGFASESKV

[3] = molecular target: T2, 5-hydroxytryptamine receptor 3A (Homo sapiens, UniProt P46098); type: functional
T2 sequence (P46098 whole entry): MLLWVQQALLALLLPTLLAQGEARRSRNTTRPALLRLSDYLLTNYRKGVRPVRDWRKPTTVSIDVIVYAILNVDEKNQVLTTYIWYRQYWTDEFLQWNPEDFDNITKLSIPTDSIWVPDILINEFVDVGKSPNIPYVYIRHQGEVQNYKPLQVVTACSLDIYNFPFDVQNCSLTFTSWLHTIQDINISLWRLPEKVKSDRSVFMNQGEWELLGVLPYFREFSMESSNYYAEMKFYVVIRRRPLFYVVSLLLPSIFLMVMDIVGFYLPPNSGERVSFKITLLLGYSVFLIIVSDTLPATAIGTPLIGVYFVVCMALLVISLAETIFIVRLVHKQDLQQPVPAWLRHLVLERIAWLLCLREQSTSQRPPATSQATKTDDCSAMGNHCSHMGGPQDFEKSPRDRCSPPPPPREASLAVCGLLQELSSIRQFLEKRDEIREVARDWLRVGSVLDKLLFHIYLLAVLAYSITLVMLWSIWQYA

Progesterone receptor = molecular target: T3, Progesterone receptor (Homo sapiens, UniProt P06401); type: functional
T3 sequence (P06401 whole entry): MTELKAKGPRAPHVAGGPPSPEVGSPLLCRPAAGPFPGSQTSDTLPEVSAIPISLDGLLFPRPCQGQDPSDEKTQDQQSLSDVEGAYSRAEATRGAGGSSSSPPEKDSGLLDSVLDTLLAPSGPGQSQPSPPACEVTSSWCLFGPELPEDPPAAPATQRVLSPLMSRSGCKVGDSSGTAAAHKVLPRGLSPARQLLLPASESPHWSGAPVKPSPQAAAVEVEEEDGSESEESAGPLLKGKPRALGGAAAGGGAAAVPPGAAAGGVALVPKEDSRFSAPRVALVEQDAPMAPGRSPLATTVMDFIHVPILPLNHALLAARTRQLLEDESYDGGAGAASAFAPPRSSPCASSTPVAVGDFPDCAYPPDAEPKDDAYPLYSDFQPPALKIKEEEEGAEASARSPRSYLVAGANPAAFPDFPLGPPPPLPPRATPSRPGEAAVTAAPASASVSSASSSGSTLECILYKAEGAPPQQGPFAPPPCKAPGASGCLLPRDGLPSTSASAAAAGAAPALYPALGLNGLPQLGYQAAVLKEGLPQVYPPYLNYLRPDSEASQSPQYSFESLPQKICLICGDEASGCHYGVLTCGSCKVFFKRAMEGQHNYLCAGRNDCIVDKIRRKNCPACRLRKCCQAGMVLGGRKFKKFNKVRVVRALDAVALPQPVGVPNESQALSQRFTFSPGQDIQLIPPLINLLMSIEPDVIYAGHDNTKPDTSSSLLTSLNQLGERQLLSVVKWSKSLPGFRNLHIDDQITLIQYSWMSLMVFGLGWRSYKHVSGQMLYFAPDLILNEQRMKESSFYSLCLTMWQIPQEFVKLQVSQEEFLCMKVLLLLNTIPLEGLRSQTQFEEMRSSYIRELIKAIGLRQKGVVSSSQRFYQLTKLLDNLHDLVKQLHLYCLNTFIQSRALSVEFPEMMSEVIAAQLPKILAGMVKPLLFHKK

Adenosine receptor A1 = molecular target: T4, Adenosine receptor A1 (Homo sapiens, UniProt P30542)
T4 sequence (P30542 whole entry): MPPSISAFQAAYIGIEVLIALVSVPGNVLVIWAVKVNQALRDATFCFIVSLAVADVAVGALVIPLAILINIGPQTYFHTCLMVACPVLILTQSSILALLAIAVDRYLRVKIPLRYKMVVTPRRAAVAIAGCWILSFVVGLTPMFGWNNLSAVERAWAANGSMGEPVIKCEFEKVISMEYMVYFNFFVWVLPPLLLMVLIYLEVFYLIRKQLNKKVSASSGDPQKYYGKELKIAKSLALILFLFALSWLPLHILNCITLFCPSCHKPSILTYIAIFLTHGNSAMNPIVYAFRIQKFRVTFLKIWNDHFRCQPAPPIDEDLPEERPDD

[4] = molecular target: T5, Muscarinic acetylcholine receptor M1 (Homo sapiens, UniProt P11229); type: functional
T5 sequence (P11229 whole entry): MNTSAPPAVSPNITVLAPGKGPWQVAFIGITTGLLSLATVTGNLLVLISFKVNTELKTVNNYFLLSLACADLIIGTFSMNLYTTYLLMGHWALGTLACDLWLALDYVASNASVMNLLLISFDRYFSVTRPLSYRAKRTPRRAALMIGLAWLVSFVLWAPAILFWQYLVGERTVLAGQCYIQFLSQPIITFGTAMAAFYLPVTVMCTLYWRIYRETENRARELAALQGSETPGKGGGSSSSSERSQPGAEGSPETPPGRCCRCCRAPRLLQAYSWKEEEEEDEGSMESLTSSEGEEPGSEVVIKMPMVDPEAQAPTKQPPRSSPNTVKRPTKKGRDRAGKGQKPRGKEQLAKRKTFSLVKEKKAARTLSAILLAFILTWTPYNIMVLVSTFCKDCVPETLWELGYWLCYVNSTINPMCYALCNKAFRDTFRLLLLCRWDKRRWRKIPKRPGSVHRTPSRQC

Cannabinoid receptor 1 = Cannabinoid receptor 1 (Homo sapiens, UniProt P21554); type: functional, cell-based
Cannabinoid receptor 1, sequence (P21554 whole entry): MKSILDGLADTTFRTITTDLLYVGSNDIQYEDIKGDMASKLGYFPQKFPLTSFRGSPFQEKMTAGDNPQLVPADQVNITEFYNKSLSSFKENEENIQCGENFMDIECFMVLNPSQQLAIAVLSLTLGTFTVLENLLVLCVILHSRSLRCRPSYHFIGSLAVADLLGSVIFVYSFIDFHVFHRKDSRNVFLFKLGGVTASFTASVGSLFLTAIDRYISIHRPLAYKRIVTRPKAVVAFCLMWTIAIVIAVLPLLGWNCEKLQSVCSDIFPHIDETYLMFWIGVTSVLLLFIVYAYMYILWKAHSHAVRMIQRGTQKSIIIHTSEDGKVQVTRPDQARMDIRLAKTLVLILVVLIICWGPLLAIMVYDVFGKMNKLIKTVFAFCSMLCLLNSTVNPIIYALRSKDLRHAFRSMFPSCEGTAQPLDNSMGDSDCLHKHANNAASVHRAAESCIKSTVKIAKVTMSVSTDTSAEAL
Note: assay procedure not described here.

| Compound | AC50 [1] [µM] | AC50 [2] [µM] | AC50 [3] [µM] | AC50 (Progesterone receptor) [µM] | AC50 (Adenosine receptor A1) [µM] | AC50 [4] [µM] | AC50 (Cannabinoid receptor 1) [µM] |
| --- | --- | --- | --- | --- | --- | --- | --- |
| CC(C)Cn1cnc2c(N)nc3ccccc3c21 [IMIQUIMOD] | > 10 | > 10 | > 30 | > 10 | > 10 | – | – |
| COc1ccc2c3c1O[C@H]1[C@@H](O)C=C[C@H]4[C@@H](C2)N(C)CC[C@@]341 [CODEINE] | > 10 | 0.9 | > 10 | – | > 30 | > 10 | > 30 |
| C[C@]12CC[C@H]3[C@@H](CCC4=CC(=O)CC[C@@]43C)[C@@H]1CC[C@@H]2O [TESTOSTERONE] | > 10 | > 10 | > 30 | – | > 10 | – | – |
| CN1CCC(=C2c3ccccc3CCc3sccc32)CC1 [PIZOTYLINE] | > 30 | > 10 | 1.4 | – | > 30 | 0.093 | > 30 |
| N#Cc1ccc([C@H]2CCc3cncn32)c(F)c1 [OSILODROSTAT] | – | > 10 | > 10 | – | > 10 | > 10 | – |
| CNS(=O)(=O)Cc1ccc2[nH]cc(CCN(C)C)c2c1 | > 30 | > 10 | – | – | > 30 | – | > 30 |
| C#C[C@]1(O)CC[C@H]2[C@@H]3CCC4=Cc5oncc5C[C@]4(C)[C@H]3CC[C@@]21C [DANAZOL] | > 10 | > 10 | – | – | > 30 | – | > 30 |
| CCCN(CCC)C(=O)C(CCC(=O)O)NC(=O)c1ccccc1 (centres undefined) [PROGLUMIDE] | > 10 | > 30 | > 30 | > 30 | > 30 | – | – |
| C[C@]1(O)CC[C@H]2[C@@H]3CCC4=CC(=O)CC[C@]4(C)[C@@]3(F)[C@@H](O)C[C@@]21C [FLUOXYMESTERONE] | > 10 | > 10 | > 30 | – | > 10 | > 30 | – |
| C#C[C@]1(O)CC[C@H]2[C@@H]3CCc4cc(OC5CCCC5)ccc4[C@H]3CC[C@@]21C [QUINESTROL] | > 10 | > 10 | > 30 | – | > 10 | > 10 | – |
| CN1CCN(CC/C=C2/c3ccccc3Sc3ccc(S(=O)(=O)N(C)C)cc32)CC1 [THIOTHIXENE] | > 10 | > 10 | 1.6 | – | > 30 | > 10 | > 30 |
| CC[C@@H]1C(=O)OC[C@@H]1Cc1cncn1C [PILOCARPINE] | > 10 | – | > 30 | – | > 30 | – | > 30 |
| CCCCc1ncc(/C=C(\Cc2cccs2)C(=O)O)n1Cc1ccc(C(=O)O)cc1 [EPROSARTAN] | > 10 | > 10 | > 10 | – | > 10 | > 10 | > 30 |
| CC1(C)O[C@@H]2C[C@H]3[C@@H]4CCC5=CC(=O)C=C[C@]5(C)[C@H]4[C@@H](O)C[C@]3(C)[C@]2(C(=O)CO)O1 [DESONIDE] | > 10 | > 10 | > 30 | – | > 10 | > 10 | > 30 |
| O=C(NCCN1CCOCC1)c1ccc(Cl)cc1 [MOCLOBEMIDE] | > 10 | > 10 | > 30 | > 10 | > 10 | – | – |
| CNC(C)CCC=C(C)C (centres undefined) [ISOMETHEPTENE] | – | > 30 | – | > 30 | > 30 | – | – |
| Cc1ccc(S(=O)(=O)NC(=O)NN2CC3CCCC3C2)cc1 (centres undefined) [GLICLAZIDE] | > 10 | > 10 | > 30 | > 10 | > 10 | – | – |
| CC(=O)OCC(=O)[C@@]12N=C(C)O[C@@H]1C[C@H]1[C@@H]3CCC4=CC(=O)C=C[C@]4(C)[C@H]3[C@@H](O)C[C@@]12C [DEFLAZACORT] | > 30 | > 30 | > 30 | – | > 30 | > 30 | > 30 |
| CCCC(=O)O[C@]1(C(=O)CO)CC[C@H]2[C@@H]3CCC4=CC(=O)CC[C@]4(C)[C@H]3[C@@H](O)C[C@@]21C [HYDROCORTISONE BUTYRATE] | > 10 | > 10 | > 30 | – | > 10 | > 10 | – |
| CCN1CCN(C(=O)N[C@@H](C(=O)N[C@@H]2C(=O)N3C(C(=O)O)=C(CSc4nnnn4C)CS[C@H]23)c2ccc(O)cc2)C(=O)C1=O [CEFOPERAZONE] | > 30 | > 30 | > 30 | – | > 30 | > 30 | > 30 |
| COc1ccc(CCN(C)CCCC(C#N)(c2cc(OC)c(OC)c(OC)c2)C(C)C)cc1OC (centres undefined) [GALLOPAMIL] | > 30 | > 30 | > 30 | – | > 30 | > 30 | > 30 |
| CC(C)(C)c1cc(C(C)(C)C)c(NC(=O)c2c[nH]c3ccccc3c2=O)cc1O [IVACAFTOR] | > 10 | > 10 | > 30 | – | > 30 | > 10 | – |
| CN1C(=O)C(O)N=C(c2ccccc2)c2cc(Cl)ccc21 (centres undefined) [TEMAZEPAM] | > 10 | > 10 | > 30 | – | > 30 | > 10 | > 30 |
| COC(=O)C1=C(C)NC(C)=C(C(=O)OC2CCCN(Cc3ccccc3)C2)C1c1cccc([N+](=O)[O-])c1 (centres undefined) [BENIDIPINE] | > 30 | > 30 | > 30 | – | > 30 | 18 | > 30 |
| CCCc1nc(C(C)(C)O)c(C(=O)OCc2oc(=O)oc2C)n1Cc1ccc(-c2ccccc2-c2nnn[nH]2)cc1 [OLMESARTAN MEDOXOMIL] | > 10 | > 10 | > 10 | – | > 50 | > 10 | > 30 |
